What was measured:
Experiment in all cases: relative viability (nuclei count vs DMSO), 5 days (fraction); higher = more cells survive
LU99A = system: LU99A
How it was run: (§1)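 Relative viability was taken as the ratio of nuclei in treated wells to nuclei in vehicle wells. Lung cancer cell lines in 1536-well plates received compounds by pin tool one day after seeding, either one drug alone or a fixed anchor-drug dose plus five library-drug doses (not always all listed) in √10 steps. Nuclei were counted on 4× images after 5 days of treatment, and values are medians of duplicate plates.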

BEN = system: BEN
How it was run: as §1

NCI-H1355 = system: NCI-H1355
How it was run: as §1

SK-MES-1 = system: SK-MES-1
How it was run: as §1

HCC-78 = system: HCC-78
How it was run: as §1

NCI-H1975 = system: NCI-H1975
How it was run: as §1

LK-2 = system: LK-2
How it was run: as §1

LCLC-97TM1 = system: LCLC-97TM1
How it was run: as §1

NCI-H596 = system: NCI-H596
How it was run: as §1

NCI-H1651 = system: NCI-H1651
How it was run: as §1

NCI-H1666 = system: NCI-H1666
How it was run: as §1

PC-3 [JPC-3] = system: PC-3 [JPC-3]
How it was run: as §1

NCI-H661 = system: NCI-H661
How it was run: as §1

NCI-H358 = system: NCI-H358
How it was run: as §1

NCI-H650 = system: NCI-H650
How it was run: as §1

LC-2-ad = system: LC-2-ad
How it was run: as §1

NCI-H2087 = system: NCI-H2087
How it was run: as §1

LXF-289 = system: LXF-289
How it was run: as §1

NCI-H838 = system: NCI-H838
How it was run: as §1

NCI-H1944 = system: NCI-H1944
How it was run: as §1

For `COc1cc2nccc(Oc3ccc(NC(=O)Nc4cc(C)on4)c(Cl)c3)c2cc1OC` [Tivozanib] + Cc1nc(NC(=O)N2CCC[C@H]2C(N)=O)sc1-c1ccnc(C(C)(C)C(F)(F)F)c1 [Alpelisib] (partner 2 µM), the relative viability (LU99A; first compound 0.005 µM) was 0.484, the relative viability (LU99A; first compound 0.01581 µM) was 0.555 and the relative viability (LU99A; first compound 0.05 µM) was 0.521. For the same compound, the relative viability (LU99A; first compound 0.5 µM) was 0.469, the relative viability (BEN; first compound 0.005 µM) was 0.991 and the relative viability (BEN; first compound 0.01581 µM) was 1.04. The relative viability (BEN; first compound 0.05 µM) was 1.03, the relative viability (BEN; first compound 0.5 µM) was 1.05 and the relative viability (NCI-H1355; first compound 0.005 µM) was 0.766. The relative viability (NCI-H1355; first compound 0.01581 µM) was 0.693, the relative viability (NCI-H1355; first compound 0.05 µM) was 0.887 and the relative viability (NCI-H1355; first compound 0.5 µM) was 0.882. For the same compound, the relative viability (SK-MES-1; first compound 0.005 µM) was 0.763, the relative viability (SK-MES-1; first compound 0.01581 µM) was 1.08 and the relative viability (SK-MES-1; first compound 0.05 µM) was 0.876. The relative viability (SK-MES-1; first compound 0.1581 µM) was 0.869, the relative viability (SK-MES-1; first compound 0.5 µM) was 0.857 and the relative viability (HCC-78; first compound 0.005 µM) was 0.327. The relative viability (HCC-78; first compound 0.01581 µM) was 0.347, the relative viability (HCC-78; first compound 0.05 µM) was 0.315 and the relative viability (HCC-78; first compound 0.1581 µM) was 0.248. The relative viability (HCC-78; first compound 0.5 µM) was 0.316, the relative viability (NCI-H1975; first compound 0.005 µM) was 0.587 and the relative viability (NCI-H1975; first compound 0.01581 µM) was 0.652. The relative viability (NCI-H1975; first compound 0.05 µM) was 0.672, the relative viability (NCI-H1975; first compound 0.1581 µM) was 0.62 and the relative viability (NCI-H1975; first compound 0.5 µM) was 0.643. For the same compound, the relative viability (LK-2; first compound 0.005 µM) was 0.93, the relative viability (LK-2; first compound 0.01581 µM) was 1.19 and the relative viability (LK-2; first compound 0.05 µM) was 1.55. It also gave a relative viability (LK-2; first compound 0.1581 µM) of 0.84, a relative viability (LK-2; first compound 0.5 µM) of 0.896 and a relative viability (LCLC-97TM1; first compound 0.005 µM) of 0.191. The relative viability (LCLC-97TM1; first compound 0.01581 µM) was 0.206, the relative viability (LCLC-97TM1; first compound 0.1581 µM) was 0.237 and the relative viability (LCLC-97TM1; first compound 0.5 µM) was 0.247. The relative viability (NCI-H596; first compound 0.005 µM) was 0.462, the relative viability (NCI-H596; first compound 0.01581 µM) was 0.464 and the relative viability (NCI-H596; first compound 0.05 µM) was 0.544. For the same compound, the relative viability (NCI-H596; first compound 0.1581 µM) was 0.47, the relative viability (NCI-H596; first compound 0.5 µM) was 0.595 and the relative viability (NCI-H1651; first compound 0.005 µM) was 0.985. It also gave a relative viability (NCI-H1651; first compound 0.01581 µM) of 0.842, a relative viability (NCI-H1651; first compound 0.05 µM) of 0.781 and a relative viability (NCI-H1651; first compound 0.1581 µM) of 0.879. It also gave a relative viability (NCI-H1651; first compound 0.5 µM) of 0.889, a relative viability (NCI-H1666; first compound 0.005 µM) of 1 and a relative viability (NCI-H1666; first compound 0.01581 µM) of 0.853. The relative viability (NCI-H1666; first compound 0.05 µM) was 1.06, the relative viability (NCI-H1666; first compound 0.1581 µM) was 0.965 and the relative viability (NCI-H1666; first compound 0.5 µM) was 1.01. The relative viability (PC-3 [JPC-3]; first compound 0.005 µM) was 0.988, the relative viability (PC-3 [JPC-3]; first compound 0.01581 µM) was 1.11 and the relative viability (PC-3 [JPC-3]; first compound 0.05 µM) was 1.15. It also gave a relative viability (PC-3 [JPC-3]; first compound 0.1581 µM) of 0.957, a relative viability (PC-3 [JPC-3]; first compound 0.5 µM) of 0.997 and a relative viability (NCI-H661; first compound 0.005 µM) of 0.52. The relative viability (NCI-H661; first compound 0.01581 µM) was 0.713, the relative viability (NCI-H661; first compound 0.05 µM) was 0.609 and the relative viability (NCI-H661; first compound 0.1581 µM) was 0.302. It also gave a relative viability (NCI-H661; first compound 0.5 µM) of 0.525, a relative viability (NCI-H358; first compound 0.005 µM) of 0.736 and a relative viability (NCI-H358; first compound 0.01581 µM) of 0.803. For the same compound, the relative viability (NCI-H358; first compound 0.05 µM) was 0.771, the relative viability (NCI-H358; first compound 0.1581 µM) was 0.73 and the relative viability (NCI-H358; first compound 0.5 µM) was 0.94. The relative viability (NCI-H650; first compound 0.005 µM) was 1.06, the relative viability (NCI-H650; first compound 0.01581 µM) was 1.13 and the relative viability (NCI-H650; first compound 0.05 µM) was 1.1. For the same compound, the relative viability (NCI-H650; first compound 0.1581 µM) was 1.02, the relative viability (NCI-H650; first compound 0.5 µM) was 0.967 and the relative viability (LC-2-ad; first compound 0.005 µM) was 0.902. It also gave a relative viability (LC-2-ad; first compound 0.01581 µM) of 0.809, a relative viability (LC-2-ad; first compound 0.05 µM) of 0.8 and a relative viability (LC-2-ad; first compound 0.1581 µM) of 0.629. For the same compound, the relative viability (LC-2-ad; first compound 0.5 µM) was 0.654, the relative viability (NCI-H2087; first compound 0.005 µM) was 1.04 and the relative viability (NCI-H2087; first compound 0.01581 µM) was 1.03. It also gave a relative viability (NCI-H2087; first compound 0.05 µM) of 1.18, a relative viability (NCI-H2087; first compound 0.1581 µM) of 0.886 and a relative viability (NCI-H2087; first compound 0.5 µM) of 1.04. The relative viability (LXF-289; first compound 0.005 µM) was 1.02, the relative viability (LXF-289; first compound 0.01581 µM) was 0.966 and the relative viability (LXF-289; first compound 0.05 µM) was 1.06. For the same compound, the relative viability (LXF-289; first compound 0.1581 µM) was 1.09, the relative viability (LXF-289; first compound 0.5 µM) was 1.02 and the relative viability (NCI-H838; first compound 0.005 µM) was 0.984. It also gave a relative viability (NCI-H838; first compound 0.01581 µM) of 1.04, a relative viability (NCI-H838; first compound 0.05 µM) of 1.04 and a relative viability (NCI-H838; first compound 0.5 µM) of 1.03. For the same compound, the relative viability (NCI-H1944; first compound 0.005 µM) was 0.889, the relative viability (NCI-H1944; first compound 0.01581 µM) was 0.902 and the relative viability (NCI-H1944; first compound 0.05 µM) was 0.885. It also gave a relative viability (NCI-H1944; first compound 0.1581 µM) of 0.733 and a relative viability (NCI-H1944; first compound 0.5 µM) of 0.912.
